Results from patent EP0103381B1, “Substituted anthra(1,9-cd)pyrazol-6(2H)-ones” (WARNER-LAMBERT COMPANY, priority 1982, dated 1984).

Tests used:
Penicillium avellaneum = test: agar plate paper-disc inhibition zone screening; format: cell-based; settings: Hamigera avellanea; Dose 3.0 mg/ml; read-out: Inhibition Zone Diameter mm (Dose mg/ml) P. Avellaneum
Description: The Penicillium avellaneum is grown for six days, at 28°C, on an agar medium. This is to allow sporulation of the culture. The organism is then harvested by scraping off the cells from the agar surface (mycelia and spores) and suspending them in saline solution containing 0.05% Tween 80.
The suspension is adjusted to a light transmittancy of 20%. One ml of this suspension is used to inoculate 100 ml of the molten-agar assay medium.
(§1) Stainless steel frames, 12.3 x 25.3 cm (ID) and glass plates, 15.3 x 31.7 cm are used to make the test trays. The frames are attached to the plates with tape at each end and the inner edges sealed with 2% agar. Twenty five ml of inoculated assay medium is spread evenly on each tray and allowed to solidify. The trays are covered, inverted, and refrigerated until used.
(§2) The compounds or samples to be tested are dissolved in suitable solvents, e.g., alcohols, dimethylsulfoxide, or N,N-dimethylformamide. The samples are generally dissolved so that the final concentration of the solvent is <10%.^* The compounds are tested at different concentrations: 3,000; 1,000; 500; 100; and 10 mcg/ml. Paper discs (12.7 mm diameter) are placed on the agar trays with forceps, then 0.08 ml of the dissolved compound is pipetted onto each disc using a 0.2 ml pipette.
(§3) The disked agar trays are incubated overnight (18-20 hours) at 37°C for the bacterial cultures and 28°C for the yeasts. The Penicillium avellaneium tray is incubated for at least […] since it is a slower- growing organism.
(§4) Active compounds show a zone of inhibition around the disc. The diameter of the zone is measured in mm. The zone diameter of active compounds ranges from a minimum of 13.5 mm to as high as 60 mm. The size of the zone diameter generally reflects the activity of the compound: the larger the zone the greater the activity.

Aerobacter aerogenes = test: agar plate paper-disc inhibition zone screening; format: cell-based; settings: Klebsiella aerogenes, read-out: Inhibition Zone Diameter mm (Dose mg/ml) A. Aerogenes; for zone of inhibition at 500 µg/mL: Dose 0.5 mg/ml; for zone of inhibition at 3000 µg/mL: Dose 3.0 mg/ml
Description: (§5) The bacterial and yeast isolates are maintained in agar slants or in liquid media, hereby designated as inoculum media. The cultures are transferred at regular intervals in such media. (See Table for the corresponding inoculum media of each culture.) The organisms are generally transferred on to agar slants or liquid inoculum media and incubated overnight (18-20 hours): 37°C for the bacterial isolates and 28°C for the fungal cultures.
(§6) The microbial cells from the overnight agar slants are then scraped off and suspended in saline solution (0.85% NaCI). The microbial concentrations are adjusted to a light transmittancy of 20-35%, Junior Coleman Spectrophotometer (555 M). For the organisms that are maintained in liquid media, an aliquot of the culture suspension is simply diluted with saline to 20-35% light transmittancy.
(§7) The above microbial suspension serve as inocula for the assay plates. Thus, 0.16-10 ml (see Table for exact amount) are used to inoculate 100 ml of the molten-agar assay medium.
as §1, §2, §3, §4

Streptococcus faecalis = test: agar plate paper-disc inhibition zone screening; format: cell-based; settings: Enterococcus faecalis; Dose 3.0 mg/ml; read-out: Inhibition Zone Diameter mm (Dose mg/ml) S. Faecalis
Description: as §5, §6, §7, §1, §2, §3, §4

Bacillus subtilis = test: agar plate paper-disc inhibition zone screening; format: cell-based; settings: read-out: Inhibition Zone Diameter mm (Dose mg/ml) B. Subtilis; for zone of inhibition at 1000 µg/mL: Dose 1.0 mg/ml; for zone of inhibition at 3000 µg/mL: Dose 3.0 mg/ml
Description: as §5, §6, §7, §1, §2, §3, §4

Escherichia coli = test: agar plate paper-disc inhibition zone screening; format: cell-based; settings: read-out: Inhibition Zone Diameter mm (Dose mg/ml) E. Coli; for zone of inhibition at 500 µg/mL: Dose 0.5 mg/ml; for zone of inhibition at 3000 µg/mL: Dose 3.0 mg/ml
Description: as §5, §6, §7, §1, §2, §3, §4

[1] = tested on: lymphocytic leukemia P388; test: in vivo lymphocytic leukemia P388 test; parameters: species or system mice; settings: Mus musculus, P388, ip, 720 h, two single doses four days apart, read-out: T/C × 100 (Percent); for response vs control in vivo at 6.25 mg/kg: P388, Dose 6.25 mg/kg intraperitoneally; for response vs control in vivo at 12.5 mg/kg: P388, Dose 12.5 mg/kg intraperitoneally; for response vs control in vivo at 25 mg/kg: P388, Dose 25 mg/kg intraperitoneally; for response vs control in vivo at 50 mg/kg: P388, Dose 50 mg/kg intraperitoneally; for response vs control in vivo at 100 mg/kg: P388, Dose 100 mg/kg intraperitoneally; for response vs control in vivo at 1.56 mg/kg: P388, Dose 1.56 mg/kg intraperitoneally
Method in brief: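 Efficacy was judged from the treated/control survival-time ratio over 30 days (T/C×100 >125% as criterion). Mice (CD2F, 6–7/group) received i.p. P388 ascites cells, then compound i.p. at varied doses twice, four days apart.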

## CN(C)CCn1nc2c3c(c(NCCN)ccc31)C(=O)c1c(O)ccc(O)c1-2 [Example 33, 5-[(2-Aminoethyl)amino]-2-[2-(dimethylamino)ethyl]-7,10-dihydroxyanthra[1,9-cd]pyrazol-6(2H)-one]
Penicillium avellaneum
  zone of inhibition at 3000 µg/mL: 0 mm
Aerobacter aerogenes
  zone of inhibition at 500 µg/mL: 14 mm
Streptococcus faecalis
  zone of inhibition at 3000 µg/mL: 16 mm
Bacillus subtilis
  zone of inhibition at 1000 µg/mL: 14 mm
Escherichia coli
  zone of inhibition at 500 µg/mL: 14 mm
[1]; P388, Dose 3.12 mg/kg intraperitoneally
  response vs control in vivo at 3.12 mg/kg: 182%
[1]
  response vs control in vivo at 6.25 mg/kg: 182%

## CN(C)CCn1nc2c3c(c(NCCCN)ccc31)C(=O)c1c(O)ccc(O)c1-2 [Example 34, 5-[(3-Aminopropyl)amino]-2-[2-(dimethylamino)ethyl]-7,10-dihydroxyanthra[1,9-cd]pyrazol-6(2H)-one]
Penicillium avellaneum
  zone of inhibition at 3000 µg/mL: 0 mm
Aerobacter aerogenes
  zone of inhibition at 3000 µg/mL: 14 mm
Streptococcus faecalis
  zone of inhibition at 3000 µg/mL: 0 mm
Bacillus subtilis
  zone of inhibition at 3000 µg/mL: 0 mm
Escherichia coli
  zone of inhibition at 3000 µg/mL: 15 mm
[1]
  response vs control in vivo at 6.25 mg/kg: 196%
  response vs control in vivo at 12.5 mg/kg: 205%

## CCN(CC)CCNc1ccc2c3c(nn2CCO)-c2c(O)ccc(O)c2C(=O)c13 [Example 35, 5-[[2-(Diethylamino)ethyl]amino]-7,10-dihydroxy-2-(2-hydroxyethyl)anthra[1,9-cd]pyrazol-6(2H)-one]
Penicillium avellaneum
  zone of inhibition at 3000 µg/mL: 0 mm
Aerobacter aerogenes
  zone of inhibition at 3000 µg/mL: 0 mm
Streptococcus faecalis
  zone of inhibition at 3000 µg/mL: 14 mm
Bacillus subtilis; Dose 0.5 mg/ml
  zone of inhibition at 500 µg/mL: 14 mm
Escherichia coli
  zone of inhibition at 3000 µg/mL: 0 mm
[1]
  response vs control in vivo at 25 mg/kg: 128%
[1]; P388, Dose 37.5 mg/kg intraperitoneally
  response vs control in vivo at 37.5 mg/kg: 135%
[1]; P388, Dose 75 mg/kg intraperitoneally
  response vs control in vivo at 75 mg/kg: 135%
[1]; P388, Dose 150 mg/kg intraperitoneally
  response vs control in vivo at 150 mg/kg: 155%
[1]; P388, Dose 200 mg/kg intraperitoneally
  response vs control in vivo at 200 mg/kg: 167%
[1]; P388, Dose 300 mg/kg intraperitoneally
  response vs control in vivo at 300 mg/kg: 177%
[1]; P388, Dose 400 mg/kg intraperitoneally
  response vs control in vivo at 400 mg/kg: 190%

## O=C1c2c(O)ccc(O)c2-c2nn(CCO)c3ccc(NCCNCCO)c1c23 [Example 36, 5-[[2-[(2-Hydroxyethyl)amino]ethyl]amino]-7,10-dihydroxy-2-(2-hydroxyethyl)anthra[1,9-cd]pyrazol-6(2H)- . one]
Penicillium avellaneum
  zone of inhibition at 3000 µg/mL: 0 mm
Aerobacter aerogenes
  zone of inhibition at 3000 µg/mL: 0 mm
Streptococcus faecalis
  zone of inhibition at 3000 µg/mL: 0 mm
Bacillus subtilis
  zone of inhibition at 3000 µg/mL: 17 mm
Escherichia coli
  zone of inhibition at 3000 µg/mL: 0 mm
[1]
  response vs control in vivo at 6.25 mg/kg: 143%
  response vs control in vivo at 12.5 mg/kg: 158%
  response vs control in vivo at 50 mg/kg: 163%
  response vs control in vivo at 100 mg/kg: 172%

## NCCNc1ccc2c3c(nn2CCO)-c2c(O)ccc(O)c2C(=O)c13 [Example 37, 5-[(2-Aminoethyl)amino]-7,10-dihydroxy-2-(2-hydroxyethyl)anthra[1,9-cd]pyrazol-6(2H)-one]
Penicillium avellaneum
  zone of inhibition at 3000 µg/mL: 0 mm
Aerobacter aerogenes; Dose 1.0 mg/ml
  zone of inhibition at 1000 µg/mL: 15 mm
Streptococcus faecalis
  zone of inhibition at 3000 µg/mL: 0 mm
Bacillus subtilis
  zone of inhibition at 1000 µg/mL: 15 mm
Escherichia coli
  zone of inhibition at 3000 µg/mL: 0 mm
[1]
  response vs control in vivo at 6.25 mg/kg: 135%
  response vs control in vivo at 12.5 mg/kg: 145%
  response vs control in vivo at 25 mg/kg: 146%
  response vs control in vivo at 50 mg/kg: 162%

## CN(C)CCNc1ccc2c3c(nn2CCO)-c2c(O)ccc(O)c2C(=O)c13 [Example 39]
Penicillium avellaneum
  zone of inhibition at 3000 µg/mL: 0 mm
Aerobacter aerogenes
  zone of inhibition at 500 µg/mL: 15 mm
Streptococcus faecalis
  zone of inhibition at 3000 µg/mL: 14 mm
Bacillus subtilis
  zone of inhibition at 3000 µg/mL: 0 mm
Escherichia coli
  zone of inhibition at 3000 µg/mL: 0 mm
[1]
  response vs control in vivo at 12.5 mg/kg: 124%
  response vs control in vivo at 25 mg/kg: 153%
  response vs control in vivo at 50 mg/kg: 180%
  response vs control in vivo at 100 mg/kg: 225%

## CCN(CC)CC(O)Cn1nc2c3c(c(NCCNCCO)ccc31)C(=O)c1c(O)ccc(O)c1-2 (stereo not shown) [Example 43, 2-[3-(Diethylamino)-2-hydroxypropyl]-7,10-dihydroxy-5-[[2-[(2-hydroxyethyl)amino]ethyl]amino]-anthra[1,9-cd]pyrazol-6(2H)-one]
Penicillium avellaneum
  zone of inhibition at 3000 µg/mL: 0 mm
Aerobacter aerogenes
  zone of inhibition at 500 µg/mL: 16 mm
Streptococcus faecalis
  zone of inhibition at 3000 µg/mL: 15 mm
Bacillus subtilis
  zone of inhibition at 3000 µg/mL: 14 mm
Escherichia coli
  zone of inhibition at 500 µg/mL: 16 mm
[1]; P388, Dose 0.78 mg/kg intraperitoneally
  response vs control in vivo at 0.78 mg/kg: 132%
[1]
  response vs control in vivo at 1.56 mg/kg: 139%

## CCN(CC)CCNc1ccc2c3c(nn2CC(O)CN(CC)CC)-c2c(O)ccc(O)c2C(=O)c13 (stereo not shown) [Example 44]
Penicillium avellaneum
  zone of inhibition at 3000 µg/mL: 0 mm
Aerobacter aerogenes
  zone of inhibition at 3000 µg/mL: 14 mm
Streptococcus faecalis
  zone of inhibition at 3000 µg/mL: 14 mm
Bacillus subtilis
  zone of inhibition at 3000 µg/mL: 15 mm
Escherichia coli
  zone of inhibition at 500 µg/mL: 15 mm
[1]
  response vs control in vivo at 12.5 mg/kg: 128%
  response vs control in vivo at 25 mg/kg: 131%
  response vs control in vivo at 50 mg/kg: 131%

## CCN(CC)CC(O)Cn1nc2c3c(c(NCCN)ccc31)C(=O)c1c(O)ccc(O)c1-2 (stereo not shown) [Example 45, 5-[(2-Aminoethyl)amino]-2-[3-(diethylamino)-2-hydroxypropyl]-7,10-dihydroxyanthra[1,9-cd]pyrazol-6(2H)-one]
Penicillium avellaneum
  zone of inhibition at 3000 µg/mL: 0 mm
Aerobacter aerogenes
  zone of inhibition at 500 µg/mL: 15 mm
Streptococcus faecalis
  zone of inhibition at 3000 µg/mL: 0 mm
Bacillus subtilis
  zone of inhibition at 3000 µg/mL: 14 mm
Escherichia coli
  zone of inhibition at 500 µg/mL: 15 mm
[1]; P388, Dose 0.39 mg/kg intraperitoneally
  response vs control in vivo at 0.39 mg/kg: 135%
[1]
  response vs control in vivo at 1.56 mg/kg: 157%

## CN(C)CCCn1nc2c3c(c(NCCCN)ccc31)C(=O)c1c(O)ccc(O)c1-2 [Example 47, 5-[(3-Aminopropyl)amino]-2-[3-(dimethylamino)propyl]-7,10-dihydroxyanthra[1,9-cd]pyrazol-6(2H)-one]
Penicillium avellaneum
  zone of inhibition at 3000 µg/mL: 0 mm
Aerobacter aerogenes
  zone of inhibition at 3000 µg/mL: 14 mm
Streptococcus faecalis
  zone of inhibition at 3000 µg/mL: 0 mm
Bacillus subtilis
  zone of inhibition at 3000 µg/mL: 14 mm
Escherichia coli
  zone of inhibition at 3000 µg/mL: 14 mm
[1]
  response vs control in vivo at 12.5 mg/kg: 173%
  response vs control in vivo at 25 mg/kg: 194%
